Results from publication PMC12518639, “Apomorphine is a novel necroptosis inhibitor targeting mixed lineage kinase domain-like protein oligomerization” (Cell Death Discovery, 2025).

Legend:
[1] = system: APAP-induced liver injury in BALB/c mice; experiment: APAP-induced liver injury model; assay type: in vivo, mouse; details: 15 mg/kg once, APAP i.p., 24 h; for Necrotic area of liver tissue (H&E): n=3
Experimental: For APAP-induced liver injury, male BALB/c mice aged 6–8 weeks (Central Lab Animal Inc., S. Korea) and male MLKL^–/– C57BL/6 mice aged 6–8 weeks (Cyagen, Santa Clara, CA, USA) were administered acetaminophen (APAP; 400–500 mg/kg, 103-90-2, Sigma-Aldrich) by i.p. injection to induce liver injury in the presence or absence of APO after 12 h of fasting. After 24 h, the mice were sacrificed to obtain liver tissues for further analysis.
For liver tissue preparation, each liver was perfused with DPBS and then fixed in 4% paraformaldehyde (PFA; PC2031-050-00, Biosesang, S. Korea) before embedding in paraffin. Sections were stained with H&E, and necrotic areas were quantified using ImageJ by calculating the proportion of pale or unstained regions relative to the total tissue area. Mouse liver sections were subjected to IHC staining to assess distinct forms of cell death: an anti-p-MLKL antibody (MA5-32752, Thermo Fisher Scientific) to evaluate p-MLKL localization (necroptosis), a TUNEL assay kit (4810-30-K, R&D Systems) for apoptosis, and an anti-4-HNE antibody (GTX01087, GeneTex) for ferroptosis.

[2] = system: DSS-induced colitis in C57BL/6 mice; experiment: DSS-induced colitis model; assay type: in vivo, mouse
Experimental: For DSS-induced colitis, male C57BL/6 mice aged 6–8 weeks (Central Lab Animal Inc., S. Korea) were administered 2.5% DSS (36–50 kDa, 9011-18-1, MP Biomedicals, Solon, OH, USA) in their drinking water for 8 days. The 2.5% DSS-supplemented drinking water was prepared by dissolving 12.5 g of DSS powder in 500 mL of distilled water and was freshly prepared and replaced daily throughout the 8 days. Body weight and DAI score were recorded daily. The DAI score was calculated based on weight loss (no weight loss, 1–5%, 5–10%, 10–15%, and >15% weight loss, respectively, representing DAI scores of 0, 1, 2, 3, and 4), stool consistency/diarrhea (normal = 0, loose stools = 2, and watery diarrhea = 4), and bleeding (no bleeding = 0, slight bleeding = 2, gross bleeding = 4). At the end of the experiment, the mice were sacrificed, and tissue samples were collected.
Each mouse colon was removed, measured in length, cut open, fixed in Bouin’s fixative (50% ethanol/5% acetic acid in distilled water), and embedded in paraffin. Tissue sections were stained with H&E (Sigma-Aldrich). Histological evaluation of the colitis lesions along the entire colon was performed using the scoring system: degree of crypt structural damage (0–3), degree of inflammatory cell infiltration (0–3), and degree of submucosal edema (0–3). For PAS staining, deparaffinized and rehydrated tissue sections were treated with 0.5% periodic acid (10450-60-9, Junsei Chemical Co., Tokyo, Japan) and stained with Schiff’s reagent (3952016, Sigma-Aldrich). Sections were dehydrated in ethyl alcohol and coverslipped.

p-MLKL oligomer = experiment: MLKL oligomerization Western blot (non-reducing/reducing) in THP-1 cells; assay type: cell-based, human; details: THP-1, TBZ, 8 h; for tetramerization and octamerization of p-MLKL: non-reducing conditions; for phosphorylation levels of RIP1, RIP3 and MLKL: reducing conditions
Experimental: Fig. 2 Effect of redox-sensitive APO on MLKL oligomerization. A Chemical structure of APO. APO undergoes auto-oxidation to form the oxidized form (Ox-APO), while the addition of DTT preserves the reduced form (Re-APO). The red highlights indicate the sites where APO loses hydrogen and electrons during the oxidation process. B Real-time 1D ^1H NMR spectra showing the degree of oxidation of APO. APO was dissolved from its powdered form in DPBS and incubated at 25 °C for 36 h. Real-time 1D ^1H NMR spectra were measured at a 2 h intervals after filtration through a 0.2 μm syringe filter to remove precipitates. […] C MLKL oligomerization is inhibited by APO. THP-1 cells were treated with TBZ and Re-APO or Ox-APO for 8 h. Western blot analysis of WCLs was performed under non-reducing and reducing conditions using the indicated antibodies. Percentage changes of p-MLKL oligomer band relative to GAPDH were shown. The p value for MLKL oligomer band intensity was calculated based on the average intensity of the tetramer and octamer bands. Octa octamer, Tetra tetramer, Mono monomer. Mean ± SEM (n = 3). **p < 0.001, ns not significant, one-way ANOVA. D THP-1 cells were treated with TBZ and Ox-APO or Re-APO for 8 h and then stained with DAPI and MLKL for confocal microscopy. In the intensity graph, green indicates MLKL. The signal intensity of MLKL fluorescence from the plasma membrane to the cytosol was measured using FluoView FV1000 software. Mean ± SEM (n > 100). **p < 0.01, ***p < 0.001, one-way ANOVA. E J774A.1 mouse monocytic cells were treated with TBZ and 20 μM Re-APO or Ox-APO for 8 h. Western blot analysis of WCLs was performed under non-reducing and reducing conditions using the indicated antibodies.
The cells were harvested and lysed in 1× RIPA buffer (R4100-010, GenDEPOT, Katy, TX, USA) containing protease (P3100-001, GenDEPOT) and phosphatase (1862495, Thermo Fisher Scientific) inhibitors. WCLs were then centrifuged at 20,000×g for 30 min at 4 °C and subjected to non-reducing or reducing 8–12% SDS-PAGE gel electrophoresis. The membrane was blocked with 5% non-fat milk in TBS and probed with antibodies. Antibodies to hMLKL (14993S), mMLKL (97705S), phospho-hMLKL (Ser358) (91689S), phospho-mMLKL (Ser345) (37333S), phospho-hRIP1 (Ser166) (65746S), mRIP1 (3493S), phospho-mRIP1 (Ser321) (38662S), phospho-hRIP3 (Ser227) (93654), mRIP3 (95702S), p-mRIP3 (Thr231/Ser232) (91702S), and LDH (2012S) (Cell Signaling Technology, Danvers, MA, USA), and GAPDH (LF-PA0018, Abfrontier, S. Korea), hRIP1 (ab72139, Abcam, Cambridge, UK), hRIP3 (sc-135170, Santa Cruz Biotechnology, Dallas, TX, USA), HMGB1 (ab78923, Abcam), and LAMP1 (ab24170, Abcam) antibodies were used.

MLKL = experiment: Confocal microscopy of MLKL membrane translocation; assay type: cell-based, human; details: THP-1, TBZ, 8 h
Experimental: THP-1 cells were washed and fixed in 4% paraformaldehyde and incubated in 0.25% Triton X-100 for 10 min, blocked for 30 min with 5% BSA-PBS, and stained with the MLKL and CD36 (ab252922, Abcam) antibody. The nuclei were stained with DAPI. Confocal microscopy (FV1000, Olympus, Tokyo, Japan) was used for image analysis. The signal intensity was measured using FluoView FV1000 software.

[3] = 15 mg/kg i.p. daily, 2.5% DSS 8 days

Compound | Serum ALT and AST levels [1] | membrane p-MLKL in liver (IHC) [1] | Necrotic area of liver tissue (H&E) [1] [%] | average histologic score ([2]; 1.5 mg/kg i.p. daily, 2.5% DSS 8 days) | average histologic score [2, 3] | DAI score and colon length ([2]; i.p. daily, 2.5% DSS 8 days) | tetramerization and octamerization of p-MLKL (p-MLKL oligomer) | phosphorylation levels of RIP1, RIP3 and MLKL (p-MLKL oligomer) | inhibition of migration of p-MLKL to the cell membrane (MLKL; same concentration) | alleviation of DSS-induced colitis symptoms relative to Ox-APO ([2]; at the same concentration) | colitis symptoms and pathological changes (H&E, PAS) ([2]; 0.15, 1.5 or 15 mg/kg i.p. daily, oxidative state not determined) | level of MLKL in the cell membrane (MLKL)
CN1CCc2cccc3c4c(cc1c23)C=CC(=O)C4=O [Ox-APO] | significantly improved | dramatic decrease | 1 | 3.0 | 1.2 | more effective than Re-APO | strongly inhibited | little effect | more effective than Re-APO |  |  | 
CN1CCc2cccc3c2C1Cc1ccc(O)c(O)c1-3 (stereo not drawn) [Re-APO] | significantly improved | dramatic decrease | 3 |  | 2.6 |  | less effective than Ox-APO | little effect |  | about ten times weaker than Ox-APO |  | 
CN1CCc2cccc3c2[C@@H]1Cc1ccc(O)c(O)c1-3 [S62, (6aS)-6-methyl-5,6,6a,7-tetrahydro-4H-dibenzo[de,g]quinoline-10,11-diol] |  |  |  |  |  |  |  |  |  |  | significantly alleviated | profoundly decreased
